Measurements reported in EP0778266A1, “5-Amino-6-cyclohexyl-4-hydroxy-hexanamide derivatives as inhibitors of beta-amyloid protein production” (BRISTOL-MYERS SQUIBB COMPANY, priority 1995, dated 1997).

Test system: γ-Secretase
Assay: Cell-based ELISA assay of β-AP production by transfected H4 cells expressing β-APP (Swedish variant); reported as inhibition of γ-secretase
Settings: β-AP in conditioned medium of transfected H4 (human neuroglioma) cells by ELISA, approximately 16 hours incubation, dose response
Text: Production and detection of β-AP made by cells in culture. The use of transfected H4 (human neuroglioma) cells stably expressing constructs containing wild-type and mutant forms of β-APP have been used to identify inhibitors of β-AP production. The Swedish variant of β-APP produces 5-7 fold more β-AP than the wild type and is typically used due to its enhanced signal. […] The capture antibody is typically a mouse monoclonal (lgG1/kβ-APPa). The antibody recognizes the carboxyl terminal epitope of β-AP. The specificity of the capture antibody ensures measurement of β-AP without interference by other secreted β-APP fragments that share amino acid sequence (β-AP1-16) with β-AP. […] In the cell-based assay conditioned medium from H4 cells is tested by ELISA for the quantity of β-AP present. […]
A typical ELISA-based assay requires plating of the transfected cells at a density sufficient for the rapid detection of the secreted β-AP (experimentally predetermined for a particular stable cell population) in a 96-well format. […] Incubation of the cells with the test agent will continue for approximately 16 hours at which time equal aliquots of media from each sample well is removed and placed into a previously prepared ELISA plate for β-AP quantitation. The ELISA is carried out in a manner described by others (Haass, et al., 1992; Hawlow and Lane, 1988) and the β-AP signal quantitated. […]

[αS-(αR*, γR*, δR*)] N-(2,2-dimethylpropyl)-γ-hydroxy-α-(1-methylethyl)-δ-[(4-methylpentyl)amino]cyclohexanehexanamide hydrochloride. [Example 31]
Activity Rating: +++ (+++ ⇐ 10)
